The target of one data set is T1, alpha synuclein (Homo sapiens, UniProt P37840).
T1 construct: autoradiography
Nature of the data set: Autoradiography in postmortem brain tissue sections. In kind it is binding. As to conditions: PD, MSA and control brain sections. The method, then: FIGS. 1A and 1C are nuclear emulsion autoradiography images of a postmortem brain samples (A—[…] PD brain; C—MSA brain) after administration of ^3H-Compound 103. FIGS. 1B and 1D are the same samples from FIGS. 1A and 1C after incubating sequentially with anti-phospho-α-syn (S129) antibody (p-syn/81A, BioLegend) and Alexa Fluor 488 goat anti-mouse secondary antibody to immunostain LBs and LNs. FIGS. 1E and 1G are nuclear emulsion autoradiography images of postmortem brain samples of (E—PD brain; G—[…] MSA brain) with ^3H-Compound 43. FIGS. 1F and 1H are the same samples from FIGS. 1E and 1G after incubating sequentially with anti-phospho-α-syn (S129) antibody (p-syn/81A, BioLegend) and Alexa Fluor 488 goat anti-mouse secondary antibody to immunostain LBs and LNs.
FIG. 3 are autoradiography images in tissue sections of ^3H-Compound 103 and ^3H-Compound 43 in PD, MSA and control brain. Neuropathological scores for Abeta, tau and Asyn are shown for each tissue section.
Kd and Bmax values of [^3H]-Compound 113 were obtained from a panel of postmortem brain samples (e.g., PD, MSA, corticobasal degeneration (CBD), progressive supranuclear palsy (PSP), Alzheimer's disease (AD)). Nuclear emulsion autoradiography identified the distribution of [^3H]-Compound 113 on PD and MSA tissues for aggregated Asyn, which was confirmed by antibody staining. […]

Data set [1] is described as follows: Dynamic PET imaging in non-human primate. In kind it is in vivo. The method, then: FIG. 2 are dynamic whole body PET images of ^11C-compound 103 in a non-human primate 1-90 minutes after administration ^11C-compound 103.
FIG. 6 are dynamic PET images (top) and time-activity curves for whole brain and different brain regions (bottom) of ^11C-compound 103 in a non-human primate and show the high uptake and rapid washout of [^11C]-compound 103.
FIG. 7 are dynamic PET images (top) and time-activity curves (bottom) of ^11C-compound 43 in a non-human primate and show the high uptake and rapid washout of [^11C]-compound 43.
Kd and Bmax values of [^3H]-Compound 113 were obtained from a panel of postmortem brain samples (e.g., PD, MSA, corticobasal degeneration (CBD), progressive supranuclear palsy (PSP), Alzheimer's disease (AD)). Nuclear emulsion autoradiography identified the distribution of [^3H]-Compound 113 on PD and MSA tissues for aggregated Asyn, which was confirmed by antibody staining. Dynamic whole body PET images of [^11C]-Compound 113 in non-human primate were obtained over 90 min. […] The non-human primate PET study confirmed that [^11C]-Compound 113 had good brain uptake (SUV ~1.6) and rapid washout (2:60 min ratio ~3.0).

A further data set concerns the target aggregated tau (Homo sapiens, UniProt P10636). Nature of the data set: Blocking of the ^3H-labelled compound with tau ligands, homogenate binding and autoradiography. As to conditions: AD, CBD and PSP.
For the next data set, the target named is α-synuclein fibrils (Homo sapiens, UniProt P37840). Description: Competitive radioligand binding with [^3H]BF2846 on α-synuclein fibrils. Particulars: [^3H]BF2846, α-synuclein fibrils; mean + Sd, n = 3; read-out: α-syn Ki. The method, then:
Competition binding assays were performed with [^3H]BF2846 and [^3H]PIB to measure affinity to Asyn and Aβ. […]

Read-outs that look alike come from different tables or passages of the source.

aggregated tau, sequence (P10636 whole entry): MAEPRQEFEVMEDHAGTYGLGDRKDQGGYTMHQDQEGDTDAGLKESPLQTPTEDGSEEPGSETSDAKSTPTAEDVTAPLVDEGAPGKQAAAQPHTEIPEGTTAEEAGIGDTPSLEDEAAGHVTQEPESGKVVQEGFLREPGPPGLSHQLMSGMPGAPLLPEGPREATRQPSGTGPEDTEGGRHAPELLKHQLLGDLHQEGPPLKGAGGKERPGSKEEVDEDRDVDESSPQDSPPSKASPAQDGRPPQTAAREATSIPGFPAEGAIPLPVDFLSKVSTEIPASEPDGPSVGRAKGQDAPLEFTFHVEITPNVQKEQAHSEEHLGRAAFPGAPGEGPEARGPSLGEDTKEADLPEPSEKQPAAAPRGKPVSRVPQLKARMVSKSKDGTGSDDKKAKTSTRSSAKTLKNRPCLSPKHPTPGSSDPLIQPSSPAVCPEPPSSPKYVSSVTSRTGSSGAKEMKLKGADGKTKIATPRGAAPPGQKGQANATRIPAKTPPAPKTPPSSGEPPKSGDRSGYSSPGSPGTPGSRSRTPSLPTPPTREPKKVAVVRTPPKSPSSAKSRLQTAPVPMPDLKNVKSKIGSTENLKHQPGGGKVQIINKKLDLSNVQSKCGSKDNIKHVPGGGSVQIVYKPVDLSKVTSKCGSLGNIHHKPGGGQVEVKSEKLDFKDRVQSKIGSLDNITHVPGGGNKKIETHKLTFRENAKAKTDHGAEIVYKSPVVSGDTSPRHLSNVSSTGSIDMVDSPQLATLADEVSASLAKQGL

As to `COc1ccc(C(=O)Nc2ccc(N3C4CCC3CN(c3ccccn3)C4)cc2)cc1` [[^3H]-Compound 103, 4-methoxy-N-(4-(3-(pyridin-2-yl)-3,8-diazabicyclo[3.2.1]octan-8-yl)phenyl)benzamide], the “ability to image alpha synuclein in human postmortem samples” value at alpha synuclein was “MSA and not PD and age-matched control”. With `COc1ccc(C(=O)Nc2ccc(N3C4CCC3CN(c3ccccn3)C4)cc2)cc1` [[^11C]-Compound 103, 4-methoxy-N-(4-(3-(pyridin-2-yl)-3,8-diazabicyclo[3.2.1]octan-8-yl)phenyl)benzamide], in data set [1], the “uptake (words)” value is reported as “high brain uptake” and the “washout” value is “rapid washout”. Also, in data set [1] (listed as [^11C]-compound 103), the “uptake (words)” value is “high uptake”. `CNc1ccc(/C=C/C=C/c2nc3ccc(OCC(O)CF)cc3s2)cn1` (centres unmarked) [PM-PBB3]: at aggregated tau, the “blocking of [^3H]-Compound 113 binding by tau ligands” value is reported as “could not be blocked”. Regarding `COc1ccc(NC(=O)c2cnc(Cl)nc2)cc1` [[^3H]-Compound 43], on alpha synuclein, the “ability to image alpha synuclein in human postmortem samples” value is “PD and not MSA and age-matched control”. Turning to `Fc1cc(-c2ccc3c(n2)[nH]c2ccncc23)ccn1` [PI-2620], the “blocking of [^3H]-Compound 113 binding by tau ligands” value on aggregated tau was “could not be blocked”. As a reminder, the Ki is a measure of affinity in units of concentration, obtained from inhibition or displacement. For `CCOC(=O)c1cnc(N2C3CCC2CN(c2cc4ccccc4cn2)C3)nc1N` [Compound 2, Ethyl 4-amino-2-(3-(isoquinolin-3-yl)-3,8-diazabicyclo[3.2.1]octan-8-yl)pyrimidine-5-carboxylate], the Ki on α-synuclein fibrils was 26.3 nM. As for `COc1ccc(C(=O)Nc2ccc(N3C4CCC3CN(c3ccccn3)C4)cc2)cc1` [Compound 103, 4-methoxy-N-(4-(3-(pyridin-2-yl)-3,8-diazabicyclo[3.2.1]octan-8-yl)phenyl)benzamide], the Ki at α-synuclein fibrils was 6.1 ± 2.1 nM. Turning to `CCOC(=O)c1cnc(N2CCN(c3ccc4ccccc4n3)CC2)nc1N` [Compound 15, Ethyl 4-amino-2-(4-(quinolin-2-yl)piperazin-1-yl)pyrimidine-5-carboxylate], the Ki on α-synuclein fibrils came out at 10.8 nM. With `COc1ccc(C(=O)Nc2ccc(N3CCC4(CC3)CCN(c3ccccn3)C4)cc2)cc1` [Compound 101, 4-methoxy-N-(4-(2-(pyridin-2-yl)-2,8-diazaspiro[4.5]decan-8-yl)phenyl)benzamide], the Ki on α-synuclein fibrils worked out at 21.9 ± 9.7 nM.

Regarding `COc1ccc(NC(=O)c2cnc(Cl)nc2)cc1` [[^11C]-compound 43], in data set [1], the “uptake (words)” value is recorded as “high uptake” and the “washout” value is “rapid washout”. `Nc1nc(N2CCN(c3ccccn3)CC2)ncc1C(=O)Nc1ccc(OC[C@@H](O)CF)cc1` [Compound 136, (R)-4-amino-N-(4-(3-fluoro-2-hydroxypropoxy)phenyl)-2-(4-(pyridin-2-yl)piperazin-1-yl)pyrimidine-5-carboxamide]: the Ki on α-synuclein fibrils is 24.8 nM.
